Data reported in ChEMBL document CHEMBL2029241, “Synthesis, characterization and in vitro anti-tumor activities of matrine derivatives” (Bioorg Med Chem Lett, 2012).
Values after ≈ are worked out from the molar mass of the structure shown.

Key:
Type in all cases: functional, cell-based
[1] = Cytotoxicity against human HEP7402 cells after 48 hrs by MTT assay
B16-F10 = assay: Cytotoxicity against mouse B16F10 cells after 48 hrs by MTT assay
[2] = Cytotoxicity against human TW03 cells after 48 hrs by MTT assay
A549 = assay: Cytotoxicity against human A549 cells after 48 hrs by MTT assay
[3] = Homo sapiens, 48 h, read-out: IC50
[4] = Mus musculus, B16-F10, 48 h, read-out: IC50
[5] = Homo sapiens, TW03, 48 h, read-out: IC50
[6] = Homo sapiens, A549, 48 h, read-out: IC50

SMILES	IC50 [1, 3]	IC50 (B16-F10; [4])	IC50 [2, 5]	IC50 (A549; [6])	IC50 [1]	IC50 (B16-F10; b16-f10)	IC50 ([2]; tw03)	IC50 (A549; a549)
O=C(c1ccccc1)C1CC[C@@H]2[C@H]3CCCN4CCC[C@@H](CN2C1=O)[C@@H]34 (stereo partly drawn)	4.3 µg/mL (≈ 12.2 µM)	10.6 µg/mL (≈ 30.1 µM)	2.4 µg/mL (≈ 6.81 µM)	3.6 µg/mL (≈ 10.2 µM)	–	–	–	–
O=C1/C(=C/c2ccc(Cl)cc2)CC[C@@H]2[C@H]3CCCN4CCC[C@@H](CN12)[C@@H]34	1.6 µg/mL (≈ 4.31 µM)	3.9 µg/mL (≈ 10.5 µM)	2.8 µg/mL (≈ 7.55 µM)	2.6 µg/mL (≈ 7.01 µM)	–	–	–	–
COc1ccc(/C=C2\CC[C@@H]3[C@H]4CCCN5CCC[C@@H](CN3C2=O)[C@@H]45)cc1	0.5 µg/mL (≈ 1.36 µM)	0.8 µg/mL (≈ 2.18 µM)	1.2 µg/mL (≈ 3.27 µM)	0.6 µg/mL (≈ 1.64 µM)	–	–	–	–
COc1cc(/C=C2\CC[C@@H]3[C@H]4CCCN5CCC[C@@H](CN3C2=O)[C@@H]45)cc(OC)c1OC	7.8 µg/mL (≈ 18.3 µM)	9.8 µg/mL (≈ 23 µM)	5.5 µg/mL (≈ 12.9 µM)	3.8 µg/mL (≈ 8.91 µM)	–	–	–	–
O=C1/C(=C/c2ccc(Br)cc2)CC[C@@H]2[C@H]3CCCN4CCC[C@@H](CN12)[C@@H]34	0.7 µg/mL (≈ 1.69 µM)	2.6 µg/mL (≈ 6.26 µM)	3.2 µg/mL (≈ 7.7 µM)	1.9 µg/mL (≈ 4.57 µM)	–	–	–	–
O=C1/C(=C/c2ccccc2)CC[C@@H]2[C@H]3CCCN4CCC[C@@H](CN12)[C@@H]34	10 µg/mL (≈ 29.7 µM)	5.7 µg/mL (≈ 16.9 µM)	2.4 µg/mL (≈ 7.13 µM)	4.6 µg/mL (≈ 13.7 µM)	–	–	–	–
CCOC(=O)CCCC1NCC2CCCN3CCCC1C23 (stereo not drawn)	–	–	–	32.3 µg/mL (≈ 110 µM)	Not Active	Not Active	Not Active	–
O=C(c1ccco1)C1CC[C@@H]2[C@H]3CCCN4CCC[C@@H](CN2C1=O)[C@@H]34 (stereo partly drawn)	11.8 µg/mL (≈ 34.5 µM)	12.9 µg/mL (≈ 37.7 µM)	4.9 µg/mL (≈ 14.3 µM)	6.6 µg/mL (≈ 19.3 µM)	–	–	–	–
O=C1/C(=C/c2ccncc2)CC[C@@H]2[C@H]3CCCN4CCC[C@@H](CN12)[C@@H]34	8.6 µg/mL (≈ 25.5 µM)	6.2 µg/mL (≈ 18.4 µM)	4.4 µg/mL (≈ 13 µM)	5.7 µg/mL (≈ 16.9 µM)	–	–	–	–
O=C1/C(=C/c2ccc(Cl)c(Cl)c2)CC[C@@H]2[C@H]3CCCN4CCC[C@@H](CN12)[C@@H]34	11.3 µg/mL (≈ 27.9 µM)	6.5 µg/mL (≈ 16 µM)	6.3 µg/mL (≈ 15.5 µM)	4.7 µg/mL (≈ 11.6 µM)	–	–	–	–
O=C1/C(=C/c2cccc(F)c2)CC[C@@H]2[C@H]3CCCN4CCC[C@@H](CN12)[C@@H]34	1.5 µg/mL (≈ 4.23 µM)	2.7 µg/mL (≈ 7.62 µM)	2.2 µg/mL (≈ 6.21 µM)	3.4 µg/mL (≈ 9.59 µM)	–	–	–	–
O=C1/C(=C/c2ccc(F)cc2)CC[C@@H]2[C@H]3CCCN4CCC[C@@H](CN12)[C@@H]34	1.8 µg/mL (≈ 5.08 µM)	2.5 µg/mL (≈ 7.05 µM)	1.9 µg/mL (≈ 5.36 µM)	3 µg/mL (≈ 8.46 µM)	–	–	–	–
O=C1CCC[C@@H]2[C@H]3CCCN4CCC[C@@H](CN12)[C@@H]34 [MATRINE]	15.3 µg/mL (≈ 61.6 µM)	17 µg/mL (≈ 68.4 µM)	16.3 µg/mL (≈ 65.6 µM)	9.7 µg/mL (≈ 39.1 µM)	–	–	–	–
C1CCN2C[C@@H]3CCCN4CCC[C@@H]([C@H]34)[C@H]2C1	–	–	–	–	Not Active	Not Active	Not Active	Not Active
COc1cccc(/C=C2\CC[C@@H]3[C@H]4CCCN5CCC[C@@H](CN3C2=O)[C@@H]45)c1	3.4 µg/mL (≈ 9.28 µM)	8.7 µg/mL (≈ 23.7 µM)	6.4 µg/mL (≈ 17.5 µM)	2.3 µg/mL (≈ 6.28 µM)	–	–	–	–
O=C1/C(=C/c2ccc([N+](=O)[O-])cc2)CC[C@@H]2[C@H]3CCCN4CCC[C@@H](CN12)[C@@H]34	8.7 µg/mL (≈ 22.8 µM)	2.8 µg/mL (≈ 7.34 µM)	3.7 µg/mL (≈ 9.7 µM)	6.2 µg/mL (≈ 16.3 µM)	–	–	–	–
COC(=O)CCCC1NCC2CCCN3CCCC1C23 (stereo not drawn)	–	–	–	31.4 µg/mL (≈ 112 µM)	Not Active	Not Active	Not Active	–
O=C(c1cccs1)C1CC[C@@H]2[C@H]3CCCN4CCC[C@@H](CN2C1=O)[C@@H]34 (stereo partly drawn)	7.5 µg/mL (≈ 20.9 µM)	4.5 µg/mL (≈ 12.6 µM)	8.1 µg/mL (≈ 22.6 µM)	2.3 µg/mL (≈ 6.42 µM)	–	–	–	–
O=C(O)CCCC1NCC2CCCN3CCCC1C23 (stereo not drawn)	–	–	–	–	Not Active	Not Active	Not Active	Not Active
NC(=O)CCCC1NCC2CCCN3CCCC1C23 (stereo not drawn)	11.4 µg/mL (≈ 43 µM)	12.9 µg/mL (≈ 48.6 µM)	21.7 µg/mL (≈ 81.8 µM)	18.6 µg/mL (≈ 70.1 µM)	–	–	–	–
O=C1/C(=C/c2cccc([N+](=O)[O-])c2)CC[C@@H]2[C@H]3CCCN4CCC[C@@H](CN12)[C@@H]34	5.3 µg/mL (≈ 13.9 µM)	8.5 µg/mL (≈ 22.3 µM)	2.4 µg/mL (≈ 6.29 µM)	7.6 µg/mL (≈ 19.9 µM)	–	–	–	–
COc1cc2c(c(OC)c1OC)-c1ccc(OC)c(=O)cc1[C@@H](NC(C)=O)CC2 [COLCHICINE]	0.4 µg/mL (≈ 1 µM)	0.8 µg/mL (≈ 2 µM)	1.3 µg/mL (≈ 3.25 µM)	0.2 µg/mL (≈ 0.501 µM)	–	–	–	–
